From PMC8086754 (Journal of medicinal chemistry, 2020)

Experiments:
human c-20S β5c = human c-20S β5c (Homo sapiens, UniProt P28074); assay: IC50 determination against human c-20S β5c; format: biochemical; settings: relative to the parent compound of the sentence
human i-20S β5i [1] = molecular target: T1, human i-20S β5i (Homo sapiens, UniProt P28062); settings: previously reported; cited from earlier work
human i-20S β5i [2] = molecular target: T1, human i-20S β5i; assay: IC50 determination against human i-20S β5i; format: biochemical; settings: for inhibitory activity against β5i (SAR statement in words): relative to the parent compound of the sentence; for reduction in β5i activity: relative to PKS2086
cathepsin L = cathepsin L (Homo sapiens, UniProt P07711); assay: Protease counter-screen, cathepsin L; format: biochemical; settings: compounds at 100, 33.3 and 11.1 μM
α-chymotrypsin = α-chymotrypsin (Bos taurus, UniProt P00766); assay: Protease counter-screen, α-chymotrypsin; format: biochemical; settings: compounds at 100, 33.3 and 11.1 μM
[3] = system: T cell proliferation in PBMCs; assay: Human PBMC proliferation assay; format: cell-based

cathepsin L, sequence (P07711 114-333, species assumed): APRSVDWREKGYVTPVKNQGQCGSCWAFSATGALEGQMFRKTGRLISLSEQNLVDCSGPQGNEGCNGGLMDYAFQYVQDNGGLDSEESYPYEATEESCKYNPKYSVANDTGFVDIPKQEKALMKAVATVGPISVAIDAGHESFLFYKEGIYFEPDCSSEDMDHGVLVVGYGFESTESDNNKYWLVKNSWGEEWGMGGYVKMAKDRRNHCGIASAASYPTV

inhibitory activity against β5c (SAR statement in words) (human c-20S β5c)	inhibitory activity against β5i (SAR statement in words) (human i-20S β5i [2])	SMILES	also measured
significant loss of affinity	–	COC[C@H](NC(=O)[C@H](CC(=O)N(C)C)NC(=O)CCc1ccccc1)C(=O)NCc1cccc2ccccc12 [Compound 2230BP]	–
–	–	CC(C)(C)ONC(=O)C[C@H](NC(=O)CCc1ccccc1)C(=O)N[C@@H](Cc1ccc(F)cc1)C(=O)NCc1cccc2ccccc12 [DPLG3]	β5i inhibitory potency (human i-20S β5i [1]): single-digit nanomolar potency
abolished the inhibitory activities	abolished the inhibitory activities	COC[C@H](NC(=O)CCc1ccccc1)C(=O)N[C@@H](C)C(=O)NCc1cccc2ccccc12 [PKS2048]	–
eliminated inhibitory activity	eliminated inhibitory activity	C[C@H](NC(=O)[C@H](CC(=O)NOC(C)(C)C)NC(=O)CCc1ccccc1)C(=O)NCc1ccnc2ccccc12 [PKS2068]	–
eliminated inhibitory activity	eliminated inhibitory activity	C[C@H](NC(=O)[C@H](CC(=O)NOC(C)(C)C)NC(=O)CCc1ccccc1)C(=O)NCc1cccc2ncccc12 [PKS2073]	–
increased activity against β5c	decreased potency against β5i	C[C@H](NC(=O)[C@H](CC(=O)NOC(C)(C)C)NC(=O)CCc1ccccc1)C(=O)NCc1cccc2[nH]ccc12 [PKS2083]	–
–	–	COC[C@H](NC(=O)[C@H](CC(=O)NOC(C)(C)C)NC(=O)CCc1ccccc1)C(=O)NCc1cccc(OC)c1 [PKS2160]	selectivity for β5i over β5c (statement in words) (human i-20S β5i [2]): abolished selectivity
significant loss of affinity	–	COC[C@H](NC(=O)[C@H](CC(=O)N1CCC1)NC(=O)CCc1ccccc1)C(=O)NCc1cccc2ccccc12 [PKS2209]	–
–	–	COC[C@H](NC(=O)[C@H](CC(=O)NOC(C)(C)C)NC(=O)CCc1ccccc1)C(=O)NCc1cccc(OC)c1OC [PKS2211]	selectivity for β5i over β5c (statement in words) (human i-20S β5i [2]): abolished selectivity
–	–	COC[C@H](NC(=O)[C@H](CC(=O)NOC(C)(C)C)NC(=O)CCc1ccccc1)C(=O)NCc1cccc2cccnc12 [PKS2220]	reduction in β5i activity (human i-20S β5i [2]): 19 fold
–	–	COC[C@H](NC(=O)[C@H](CC(=O)NOC(C)(C)C)NC(=O)CCc1ccccc1)C(=O)NCc1cccc2c1NCCC2 [PKS2226]	reduction in β5i activity (human i-20S β5i [2]): 114 fold
–	–	C[C@H](NC(=O)[C@H](CC(=O)NC(C)(C)C)NC(=O)C(=O)c1c[nH]c2ccccc12)C(=O)NCc1cccc2ccccc12 [PKS3053]	inhibition of cathepsin L (cathepsin L): weak inhibition; inhibition of α-chymotrypsin (α-chymotrypsin): weak inhibition; activity against T cells relative to comparator ([3]; compared to PKS21210): two times more active; activity against T cells relative to comparator ([3]; compared to PKS21272): > 3 times
abolished the inhibitory activities	–	NC(=O)C[C@H](NC(=O)CCc1ccccc1)C(=O)N[C@@H](Cc1ccc(F)cc1)C(=O)NCc1cccc2ccccc12 [PKS21083]	–
–	equipotent	C[C@H](NC(=O)[C@H](CCC(=O)NC(C)(C)C)NC(=O)CCc1ccccc1)C(=O)NCc1ccc(F)c2ccccc12 [PKS21210]	–
–	–	COC[C@H](NC(=O)[C@H](CCC(=O)NC(C)(C)C)NS(=O)(=O)c1ccc(C)cc1)C(=O)NCc1ccc(F)c2ccccc12 [PKS21265]	greater potency against T cells ([3]; compared to PKS21209): 2 fold; greater potency against T cells ([3]; compared to PKS21266): 5 fold
